Measurements published in patent EP0278501A2, “Nucleotide analogs, their production and use” (Takeda Chemical Industries, Ltd., priority 1987, dated 1988).
Converted amounts (≈) assume the structure as drawn.

Key:
[1] = Cytotoxicity in non-infected control culture (visible disruption of normal cell morphology); type: cell-based; conditions: monkey, vero cells; minimum concentration to cause a visible disruption of normal cell morphology; non-infected Vero control culture, three days; read-out: Cytotoxicity^b)
[2] = test system: Herpes Simplex Virus Type 1, HF Strainn; assay: Inhibition of viral cytopathogenic effect in infected Vero cells; type: cell-based
Excerpt: Inhibitory Effect of Antiviral Compounds against Herpes Simplex Virus Type 1, HF Strainn
Vero cells were infected with 100 TCIDso(50% tissue-culture infected doses) of viruses and cultured with various concentrations of the compounds.

Vero cells = assay: Cytotoxicity in non-infected control culture (visible disruption of normal cell morphology); type: cell-based; conditions: minimum concentration to cause a visible disruption of normal cell morphology; non-infected Vero control culture, three days; 4320 min
[3] = test system: cyclic AMP phosphodiesterase originated from a cow brain; assay: Reaction with cyclic AMP phosphodiesterase; type: biochemical; conditions: enzyme originated from a cow brain

Compound: Nc1nc2c(ncn2[C@@H]2C[C@H](COP(=O)(O)O)[C@@H](O)C2)c(=O)[nH]1 [Carbocyclic•2'-deoxyguanosine-6'-monophosphate]
- MCC at 72 h [1]: 50 µg/mL
- EC50 ([2]; Human alphaherpesvirus 1, 72 h; concentration required to reduce the viral cytopathogenic effect by 50%; Vero cells infected with 100 TCID50; observed three days after the infection; read-out: ID50^a)): 0.2 µg/mL (≈ 0.579 µM)

Compound: Carbocyclic•2'-deoxyguanosine 6'-triphosphate
- Cytotoxicity^b) (Vero cells): 50 µg/mL
- ID50^a) ([2]; concentration required to reduce the viral cytopathogenic effect by 50%, Vero cells infected with 100 TCID50, observed three days after the infection, 4320 min): 0.4 µg/mL

Compound: 2'-Deoxyaristeromycin-3',6'-cyclic phosphate [Example 1]
- conversion by cyclic AMP phosphodiesterase [3]: changed to 2'-deoxyaristeromycin-mono phosphate
